# Data published in PubChem BioAssay AID652219 (Broad Institute, 2013).
# Calls of active or inactive are those of the source. No rule for the calls is given here.
# Test system: V. cholerae SLS353 luxOD47E qrr4-GFP fluorescence
# Assay: Quorum LuxO inhibitors, V. cholerae SLS353 luxOD47E qrr4 GFP fluorescence, confirmatory dose response (AID 652219)
row,Compound,AC50
1,Cc1ccc(OCCNC(=O)c2cccc(C)c2)cc1,100 µM (inactive)
2,CCCn1nnnc1NCc1ccc(C(C)C)cc1,> 500 µM (inactive)
3,CCn1nnnc1NCc1ccc(N2CCCC2)cc1,> 500 µM (inactive)
4,O=C(Nc1nnc(-c2ccc3c(c2)OCCO3)o1)C1CCCCC1,2 µM
5,O=C(Cc1ccc(-c2ccccc2)cc1)NC1CCCC1,> 500 µM (inactive)
6,COc1ccccc1NC(=O)COC(=O)c1oc2ccccc2c1C,> 500 µM (inactive)
7,CCCn1nnnc1NCc1ccc(N(CC)CC)cc1,> 500 µM (inactive)
8,COc1ccccc1NC(=O)COC(=O)c1ccc(C)cc1,> 500 µM (inactive)
9,CCCn1nnnc1NCc1ccc(N2CCCC2)cc1,> 500 µM (inactive)
10,COc1ccccc1NC(=O)COC(=O)c1cc2c(s1)CCC2,> 500 µM (inactive)
11,Cc1ccc2cc3c(NC(=O)c4ccco4)nn(C)c3nc2c1,4 µM
12,COc1ccc(Cl)cc1NC(=O)COC(=O)c1ccc(C)o1,> 500 µM (inactive)
13,CCC(C)NC(=O)Cc1ccc(-c2ccccc2)cc1 (stereo not given),> 500 µM (inactive)
14,O=c1ncn(-c2cccc(Cl)c2)c2ccccc12,250 µM
15,CCOc1ccc(Nc2ccc3nonc3c2[N+](=O)[O-])cc1,> 500 µM (inactive)
